Test results published in US20260041620A1, “NOVEL AMINO ACID BASED SALTS, COMPOSITIONS AND METHODS FOR TREATING SKIN AND IMPROVING SKIN REJUVENATION AND LONGEVITY” (Sytheon Ltd, priority 2023, published 2026).
Like-named read-outs stand apart in the source and are kept apart here.

Key:
HDAC 8 = biological target: T1, HDAC 8 (Homo sapiens, UniProt Q9BY41)
T1 sequence (Q9BY41 1-377): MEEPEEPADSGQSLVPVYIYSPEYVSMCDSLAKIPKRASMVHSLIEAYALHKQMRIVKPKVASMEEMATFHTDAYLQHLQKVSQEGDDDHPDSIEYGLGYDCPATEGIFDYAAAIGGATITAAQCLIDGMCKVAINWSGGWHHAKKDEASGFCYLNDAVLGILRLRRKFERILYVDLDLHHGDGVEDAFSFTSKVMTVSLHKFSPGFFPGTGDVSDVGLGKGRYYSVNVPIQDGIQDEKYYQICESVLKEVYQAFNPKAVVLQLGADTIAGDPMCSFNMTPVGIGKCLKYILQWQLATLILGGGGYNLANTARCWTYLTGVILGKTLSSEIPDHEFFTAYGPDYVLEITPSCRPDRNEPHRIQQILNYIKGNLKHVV
Description: (§1) Test materials were stored at room temperature and stock solutions were prepared at 20 mg/ml in DMSO. Further dilutions were made in sterile distilled water immediately before being added to the reaction mixture containing a substrate, and the reaction was triggered by the addition of purified HDAC enzymes, Double distilled water was the negative control and trichostatin (1.5 ug/ml) was used as a positive control for validation of each study. The test procedure was as directed in the assay kits. The products of the reactions were measured by fluorometry at ex/em 350/450 nm using multi-well plate fluorometer Cytofluor 4000 (Applied Biosystem, Foster City, CA) or using SpectraMax i3× Multi-Mode Detection Platform from Molecular Devices (Sunnyvale, CA).
(§2) Statistical significance was assessed with a two-tail Student test. Deviations of ≤20% as compared to water control with p values below 0.05 were considered statistically significant.

HDAC10 = biological target: T2, HDAC10 (Homo sapiens, UniProt Q969S8)
T2 sequence (Q969S8 1-669): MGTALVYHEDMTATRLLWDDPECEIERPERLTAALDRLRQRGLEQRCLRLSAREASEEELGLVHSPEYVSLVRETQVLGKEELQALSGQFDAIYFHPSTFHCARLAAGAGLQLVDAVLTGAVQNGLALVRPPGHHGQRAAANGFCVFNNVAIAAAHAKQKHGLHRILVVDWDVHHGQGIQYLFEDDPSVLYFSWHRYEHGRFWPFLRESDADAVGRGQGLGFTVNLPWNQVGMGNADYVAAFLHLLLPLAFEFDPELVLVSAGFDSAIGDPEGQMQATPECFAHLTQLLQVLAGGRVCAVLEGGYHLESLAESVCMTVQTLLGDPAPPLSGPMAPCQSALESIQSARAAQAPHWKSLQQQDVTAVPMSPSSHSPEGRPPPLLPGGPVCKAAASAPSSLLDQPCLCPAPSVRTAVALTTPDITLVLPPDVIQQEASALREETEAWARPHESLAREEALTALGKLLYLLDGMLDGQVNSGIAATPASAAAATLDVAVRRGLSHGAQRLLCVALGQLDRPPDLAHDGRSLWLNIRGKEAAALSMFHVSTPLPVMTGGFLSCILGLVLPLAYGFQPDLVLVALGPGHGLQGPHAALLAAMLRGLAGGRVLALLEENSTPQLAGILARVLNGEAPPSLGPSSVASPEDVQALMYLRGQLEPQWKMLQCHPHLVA
Description: as §1, §2

HDAC 4 = HDAC 4 (Homo sapiens, UniProt P56524); assay: HDAC 4 fluorogenic assay kit
HDAC2 = HDAC2 (Homo sapiens, UniProt Q92769)
Description: as §1, §2

HDAC7 = biological target: T3, HDAC7 (Homo sapiens, UniProt Q8WUI4)
T3 sequence (Q8WUI4 1-952): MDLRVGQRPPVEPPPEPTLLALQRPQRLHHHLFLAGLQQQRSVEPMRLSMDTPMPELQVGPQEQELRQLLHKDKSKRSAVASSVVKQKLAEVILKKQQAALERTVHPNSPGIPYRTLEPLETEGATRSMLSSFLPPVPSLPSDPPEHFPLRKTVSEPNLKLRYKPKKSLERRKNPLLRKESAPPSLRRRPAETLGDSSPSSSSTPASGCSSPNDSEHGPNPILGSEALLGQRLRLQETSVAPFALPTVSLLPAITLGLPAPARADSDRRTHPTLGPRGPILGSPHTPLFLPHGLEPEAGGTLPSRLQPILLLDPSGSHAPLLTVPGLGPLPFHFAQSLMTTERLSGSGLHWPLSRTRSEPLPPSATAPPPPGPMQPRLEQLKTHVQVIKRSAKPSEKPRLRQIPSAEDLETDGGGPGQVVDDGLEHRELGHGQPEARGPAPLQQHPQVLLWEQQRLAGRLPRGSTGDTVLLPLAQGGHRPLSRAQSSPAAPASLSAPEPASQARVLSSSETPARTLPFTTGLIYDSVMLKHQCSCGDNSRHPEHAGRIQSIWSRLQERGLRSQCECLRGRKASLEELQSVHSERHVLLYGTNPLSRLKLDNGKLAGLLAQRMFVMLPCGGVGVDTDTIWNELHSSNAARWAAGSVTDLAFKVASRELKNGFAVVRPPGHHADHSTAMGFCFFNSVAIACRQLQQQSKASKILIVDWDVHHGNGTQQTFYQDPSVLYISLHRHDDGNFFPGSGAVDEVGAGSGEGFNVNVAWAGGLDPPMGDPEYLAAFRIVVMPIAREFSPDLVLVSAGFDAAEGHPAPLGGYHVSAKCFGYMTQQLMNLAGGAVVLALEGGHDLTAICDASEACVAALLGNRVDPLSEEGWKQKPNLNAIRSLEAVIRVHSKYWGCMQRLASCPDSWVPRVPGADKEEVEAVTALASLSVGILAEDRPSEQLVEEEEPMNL
Description: as §1, §2

FABP-5 = biological target: T4, FABP-5 (Homo sapiens, UniProt Q01469); assay: FABP-5 ELISA inhibitory assay; type: biochemical
T4 construct: purchased Raybiotech 268-10276-1

FABP-3 = biological target: T5, FABP-3 (Homo sapiens, UniProt P05413); assay: FABP-3 ELISA inhibitory assay; type: biochemical
T5 construct: purchased Neovateinbio PT-452
T5 sequence (P05413 whole entry): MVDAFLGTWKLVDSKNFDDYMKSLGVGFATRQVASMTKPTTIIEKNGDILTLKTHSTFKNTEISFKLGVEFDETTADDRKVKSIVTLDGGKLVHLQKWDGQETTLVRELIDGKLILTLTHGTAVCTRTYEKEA

Sequence of HDAC2 (Q92769 whole entry): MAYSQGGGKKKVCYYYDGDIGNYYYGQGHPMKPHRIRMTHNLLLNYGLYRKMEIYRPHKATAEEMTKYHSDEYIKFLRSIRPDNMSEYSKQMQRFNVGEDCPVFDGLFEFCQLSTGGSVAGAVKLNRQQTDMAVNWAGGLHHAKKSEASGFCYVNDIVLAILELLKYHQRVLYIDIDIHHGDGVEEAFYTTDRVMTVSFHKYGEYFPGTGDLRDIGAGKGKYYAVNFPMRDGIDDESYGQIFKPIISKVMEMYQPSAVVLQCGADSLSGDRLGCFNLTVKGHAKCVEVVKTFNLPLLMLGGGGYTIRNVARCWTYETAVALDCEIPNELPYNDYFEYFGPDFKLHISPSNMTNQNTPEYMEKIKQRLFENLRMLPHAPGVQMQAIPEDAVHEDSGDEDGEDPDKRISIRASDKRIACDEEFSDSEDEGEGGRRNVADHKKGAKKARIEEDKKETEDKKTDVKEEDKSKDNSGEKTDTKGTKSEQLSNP
Sequence of HDAC 4 (P56524 whole entry): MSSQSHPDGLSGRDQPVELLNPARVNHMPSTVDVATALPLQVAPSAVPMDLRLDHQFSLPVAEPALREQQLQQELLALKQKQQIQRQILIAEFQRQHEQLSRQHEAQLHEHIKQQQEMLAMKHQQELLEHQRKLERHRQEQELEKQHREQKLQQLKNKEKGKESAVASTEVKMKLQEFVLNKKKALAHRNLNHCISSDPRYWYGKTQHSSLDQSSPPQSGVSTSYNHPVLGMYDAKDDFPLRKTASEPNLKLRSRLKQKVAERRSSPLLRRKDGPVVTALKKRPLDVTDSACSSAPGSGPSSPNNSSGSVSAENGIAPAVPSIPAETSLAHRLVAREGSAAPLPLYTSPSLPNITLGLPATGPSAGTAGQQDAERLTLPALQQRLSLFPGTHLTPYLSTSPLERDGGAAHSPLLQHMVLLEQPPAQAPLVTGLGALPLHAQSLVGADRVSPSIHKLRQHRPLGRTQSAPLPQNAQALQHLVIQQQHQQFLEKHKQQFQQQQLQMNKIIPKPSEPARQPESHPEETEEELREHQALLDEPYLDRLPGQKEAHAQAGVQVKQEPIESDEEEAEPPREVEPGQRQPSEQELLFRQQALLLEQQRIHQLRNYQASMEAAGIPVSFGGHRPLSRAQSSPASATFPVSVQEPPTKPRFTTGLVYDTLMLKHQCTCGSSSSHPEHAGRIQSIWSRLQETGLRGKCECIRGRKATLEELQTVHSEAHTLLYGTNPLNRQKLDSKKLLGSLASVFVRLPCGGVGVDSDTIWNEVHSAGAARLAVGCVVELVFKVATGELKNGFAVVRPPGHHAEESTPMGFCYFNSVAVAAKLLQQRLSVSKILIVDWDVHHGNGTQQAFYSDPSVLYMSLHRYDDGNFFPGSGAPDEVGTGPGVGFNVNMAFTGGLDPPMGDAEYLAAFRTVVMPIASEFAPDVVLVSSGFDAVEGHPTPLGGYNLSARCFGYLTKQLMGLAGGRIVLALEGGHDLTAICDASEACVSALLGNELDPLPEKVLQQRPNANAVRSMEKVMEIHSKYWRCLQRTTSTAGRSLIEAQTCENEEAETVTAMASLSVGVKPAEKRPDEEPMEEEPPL
T4 sequence (Q01469 whole entry): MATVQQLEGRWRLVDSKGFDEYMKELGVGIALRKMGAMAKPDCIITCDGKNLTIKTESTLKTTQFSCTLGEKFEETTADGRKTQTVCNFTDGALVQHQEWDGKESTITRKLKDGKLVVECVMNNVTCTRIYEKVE

Substance: Zinc Di-lysinate [Zn dilysinate]
- HDAC 8 activity, % of water-treated controls (HDAC 8; 5 ug/ml): 13%
- HDAC 8 activity, % of water-treated controls (HDAC 8; 25 ug/ml): 13%
- HDAC 8 activity, % of water-treated controls (HDAC 8; 50 ug/ml): 14%
- HDAC 8 activity, % of water-treated controls (HDAC 8; 100 ug/ml): 13%
- HDAC 8 activity, % of water-treated controls (HDAC 8; 200 ug/ml): 12%
- HDAC 10 activity, % of water-treated controls (HDAC10; 25 ug/ml): 19%
- HDAC 10 activity, % of water-treated controls (HDAC10; 50 ug/ml): 12%
- HDAC 10 activity, % of water-treated controls (HDAC10; 100 ug/ml): 9%
- HDAC 10 activity, % of water-treated controls (HDAC10; 200 ug/ml): 6%
- HDAC 4 activity, % of water-treated controls (HDAC 4; 25 ug/ml): 100%
- HDAC 4 activity, % of water-treated controls (HDAC 4; 50 ug/ml): 92%
- HDAC 4 activity, % of water-treated controls (HDAC 4; 100 ug/ml): 63%
- HDAC 2 activity, % of water-treated controls (HDAC2; 25 ug/ml): 12%
- HDAC 2 activity, % of water-treated controls (HDAC2; 50 ug/ml): 1%
- HDAC 2 activity, % of water-treated controls (HDAC2; 100 ug/ml): 1%
- HDAC 2 activity, % of water-treated controls (HDAC2; 200 ug/ml): 9%
- HDAC 7 activity, % of water-treated controls (HDAC7; 25 ug/ml): 30%
- HDAC 7 activity, % of water-treated controls (HDAC7; 50 ug/ml): 18%
- HDAC 7 activity, % of water-treated controls (HDAC7; 100 ug/ml): 10%
- HDAC 7 activity, % of water-treated controls (HDAC7; 200 ug/ml): 10%
- FABP-5 IC50 (FABP-5): 3,014 μg/ml
- FABP-3 IC50 (FABP-3): 255.2 µg/mL
